Test results as given in patent publication US20250059220A1, “SUBSTITUTED BENZOTHIOPHENE DERIVATIVES AND METHODS OF USE THEREOF” (Merck Sharp & Dohme LLC, priority 2021, published 2025).

What was measured:
human PTPN2 (1-387) = human PTPN2 (1-387) (Homo sapiens (Human), UniProt P17706); test: Human PTPN2 Biochemical Assay; conditions: DiFMUP substrate
Description: Human PTPN2 Biochemical Assay
Test compounds were dissolved in DMSO, and 10-point serial 3-fold dilution series in DMSO were prepared in Echo Qualified 384-well Polypropylene Microplates (Labcyte, San Jose, CA) (top concentration 50 µM). Assay plates (384-well low volume black plates; Corning #3820, Corning, NY) were prepared by dispensing 50 nL of test compound, and DMSO (for high and low controls) by ECHO acoustic dispenser (Labcyte, San Jose CA). This was followed by addition of 5 μL of 0.2 nM human PTPN2 (1-387) solution (prepared in the assay buffer, 50 mM Tris pH 7.4, 150 mM NaCl, 0.01% Tween20, 0.5 mM dithiothreitol) to all wells except the low control. 5 μl of assay buffer was added into the low control, then the plate was incubated for 30 minutes at room temperature. Subsequently, 5 μl of 100 µM DiFMUP (6,8-difluoro-4-methylumbelliferyl phosphate) solution (prepared in assay buffer from 10 mM stock in DMSO) was added to the assay plate and incubated for 1 hour at room temperature. For detection, assay plates were read on SpectraMax Microplate Reader (Molecular Devices), with Excitation wavelength=360 nm and Emission wavelength=460 nm. Test compound effects were normalized to the window defined by the controls, DMSO/buffer, and DMSO/50 pM human PTPN2. Calculated % effects were fit using a 4-parameter algorithm, and EC50 was reported.

human PTPN1 (1-435) = human PTPN1 (1-435) (Homo sapiens (Human), UniProt P18031); test: Human PTPN1 Biochemical Assay; conditions: DiFMUP substrate, read-out: PTP1B IC50
Description: Human PTPN1 Biochemical Assay
Test compounds were dissolved in DMSO, and 10-point serial 3-fold dilution series in DMSO were prepared in Echo Qualified 384-well Polypropylene Microplates (Labcyte, San Jose, CA) (top concentration 50 µM). […] 5 μl of assay buffer was added into the low control. The plate was incubated for 30 minutes at room temperature. Subsequently, 5 μl of 100 µM DiFMUP (6,8-difluoro-4-methylumbelliferyl phosphate) solution (prepared in assay buffer from 10 mM stock in DMSO) was added to the assay plate and incubated for 1 hour at room temperature. For detection, assay plates were read on SpectraMax Microplate Reader (Molecular Devices), with Excitation wavelength=360 nm and Emission wavelength=460 nm. […] Calculated % effects were fit using a 4-parameter algorithm, and EC50 was reported.

human PTPN2 (1-387), sequence (P17706 other isoform, or with tags, fused parts or gaps): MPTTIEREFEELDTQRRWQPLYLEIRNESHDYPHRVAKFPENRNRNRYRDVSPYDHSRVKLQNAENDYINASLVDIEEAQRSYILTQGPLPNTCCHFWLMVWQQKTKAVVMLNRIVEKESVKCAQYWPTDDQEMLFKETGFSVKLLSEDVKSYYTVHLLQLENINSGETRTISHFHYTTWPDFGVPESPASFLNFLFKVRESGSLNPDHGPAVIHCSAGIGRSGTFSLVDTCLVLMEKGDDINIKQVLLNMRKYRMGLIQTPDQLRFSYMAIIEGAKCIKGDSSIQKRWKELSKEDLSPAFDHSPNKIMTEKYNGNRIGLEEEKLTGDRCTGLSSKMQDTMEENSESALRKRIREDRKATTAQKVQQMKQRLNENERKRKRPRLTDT
human PTPN1 (1-435), sequence (P18031 whole entry): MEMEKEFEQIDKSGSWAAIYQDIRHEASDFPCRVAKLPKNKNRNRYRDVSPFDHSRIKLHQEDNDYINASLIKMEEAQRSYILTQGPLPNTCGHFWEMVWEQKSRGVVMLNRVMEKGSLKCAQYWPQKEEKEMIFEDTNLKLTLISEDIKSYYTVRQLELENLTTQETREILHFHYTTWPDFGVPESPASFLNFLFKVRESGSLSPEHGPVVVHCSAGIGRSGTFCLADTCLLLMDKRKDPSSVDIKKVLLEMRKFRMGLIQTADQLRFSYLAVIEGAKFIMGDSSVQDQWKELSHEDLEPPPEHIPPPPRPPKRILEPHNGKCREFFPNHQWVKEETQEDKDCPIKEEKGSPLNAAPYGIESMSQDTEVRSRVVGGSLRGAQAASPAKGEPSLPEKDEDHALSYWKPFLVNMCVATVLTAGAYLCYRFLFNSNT

Row | SMILES | IC50 (human PTPN2 (1-387)) [µM] | IC50 (human PTPN1 (1-435)) [µM]
1 | CN(C(=O)c1ccc2sc(C(F)(F)P(=O)(O)O)c(Br)c2c1)c1cccc(Oc2ccccc2)c1 [Compound 20] | 6.14 | 4.44
2 | N#CC1(c2ccc(NC(=O)c3ccc4sc(C(F)(F)P(=O)(O)O)c(Br)c4c3)cc2)CCCCC1 [Compound 21] | 2.15 | 1.41
3 | O=C(NCc1cnn2ccccc12)c1ccc2sc(C(F)(F)P(=O)(O)O)c(Br)c2c1 [Compound 22] | 2.59 | 1.99
4 | O=C(Nc1cccnc1Oc1ccccc1)c1ccc2sc(C(F)(F)P(=O)(O)O)c(Br)c2c1 [Compound 23] | 9.28 | 7.25
5 | COc1cccc(NC(=O)c2ccc3sc(C(F)(F)P(=O)(O)O)c(Br)c3c2)c1 [Compound 24] | 2.16 | 1.36
6 | O=C(Nc1ccc(F)cc1)c1ccc2sc(C(F)(F)P(=O)(O)O)c(Br)c2c1 [Compound 25] | 3.17 | 2.57
7 | O=C(Nc1ccc(OCC2CCCO2)cc1)c1ccc2sc(C(F)(F)P(=O)(O)O)c(Br)c2c1 (centres unmarked) [Compound 26] | 2.34 | 1.72
8 | O=C(NC1CC(F)(F)C1)c1ccc2sc(C(F)(F)P(=O)(O)O)c(Br)c2c1 [Compound 27] | 3.23 | 2.19
9 | O=C(NCC1CC(F)(F)C1)c1ccc2sc(C(F)(F)P(=O)(O)O)c(Br)c2c1 [Compound 28] | 6.93 | 5.16
10 | COc1ccc(NC(=O)c2ccc3sc(C(F)(F)P(=O)(O)O)c(Br)c3c2)cc1 [Compound 29] | 3.34 | 2.49
11 | O=C(NCc1cncc(C(F)(F)F)c1)c1ccc2sc(C(F)(F)P(=O)(O)O)c(Br)c2c1 [Compound 30] | 2.09 | 1.84
12 | O=C(Nc1ccccc1F)c1ccc2sc(C(F)(F)P(=O)(O)O)c(Br)c2c1 [Compound 32] | 1.89 | 1.31
13 | O=C(Nc1cccc(F)c1)c1ccc2sc(C(F)(F)P(=O)(O)O)c(Br)c2c1 [Compound 33] | 1.86 | 2.12
14 | N#CCCCNC(=O)c1ccc2sc(C(F)(F)P(=O)(O)O)c(Br)c2c1 [Compound 34] | 5.86 | 4.48
15 | CC(NC(=O)c1ccc2sc(C(F)(F)P(=O)(O)O)c(Br)c2c1)c1cccnc1 (centres unmarked) [Compound 35] | 7.16 | 6.44
16 | O=C(NC1CCC(F)(F)CC1)c1ccc2sc(C(F)(F)P(=O)(O)O)c(Br)c2c1 [Compound 36] | 3.93 | 2.75
17 | N#CC1CCC(NC(=O)c2ccc3sc(C(F)(F)P(=O)(O)O)c(Br)c3c2)C1 (centres unmarked) [Compound 37] | 3.49 | 2.65
18 | N#CC1(CNC(=O)c2ccc3sc(C(F)(F)P(=O)(O)O)c(Br)c3c2)CC1 [Compound 38] | 4.24 | 3.4
19 | O=C(NC1CC1(F)F)c1ccc2sc(C(F)(F)P(=O)(O)O)c(Br)c2c1 (centres unmarked) [Compound 39] | 3 | 2.27
20 | COC1CC(NC(=O)c2ccc3sc(C(F)(F)P(=O)(O)O)c(Br)c3c2)C1 (centres unmarked) [Compound 40] | 5.78 | 4.2
21 | O=C(NC1CCC(F)(F)C1)c1ccc2sc(C(F)(F)P(=O)(O)O)c(Br)c2c1 (centres unmarked) [Compound 41] | 3.23 | 2.23
22 | O=C(NCc1cncnc1)c1ccc2sc(C(F)(F)P(=O)(O)O)c(Br)c2c1 [Compound 42] | 2.38 | 1.78
23 | Cc1noc(C)c1CCNC(=O)c1ccc2sc(C(F)(F)P(=O)(O)O)c(Br)c2c1 [Compound 43] | 6.53 | 4.9
24 | CS(=O)(=O)N1CCC(NC(=O)c2ccc3sc(C(F)(F)P(=O)(O)O)c(Br)c3c2)CC1 [Compound 44] | 3.06 | 2.47
25 | COCCCCNC(=O)c1ccc2sc(C(F)(F)P(=O)(O)O)c(Br)c2c1 [Compound 45] | 5.17 | 4.08
26 | N#CCCCCNC(=O)c1ccc2sc(C(F)(F)P(=O)(O)O)c(Br)c2c1 [Compound 46] | 8.5 | 6.23
27 | O=C(NCCCC(F)(F)F)c1ccc2sc(C(F)(F)P(=O)(O)O)c(Br)c2c1 [Compound 47] | 4.91 | 4.21
28 | CS(=O)(=O)N1CC2(CC(NC(=O)c3ccc4sc(C(F)(F)P(=O)(O)O)c(Br)c4c3)C2)C1 [Compound 48] | 7.15 | 5.53

Row | SMILES | IC50 (human PTPN2 (1-387)) [µM] | IC50 (human PTPN1 (1-435)) [µM]
29 | O=C(NCC(F)(F)F)c1ccc2sc(C(F)(F)P(=O)(O)O)c(Br)c2c1 [Compound 49] | 5.09 | 4.15
30 | Cc1nn(C)cc1CNC(=O)c1ccc2sc(C(F)(F)P(=O)(O)O)c(Br)c2c1 [Compound 50] | 7.49 | 6.39
31 | O=C(NCc1nnc2n1CCC2)c1ccc2sc(C(F)(F)P(=O)(O)O)c(Br)c2c1 [Compound 51] | 1.35 | 1.11
32 | O=C(N[C@H]1CC[C@H](C(F)(F)F)CC1)c1ccc2sc(C(F)(F)P(=O)(O)O)c(Br)c2c1 [Compound 52] | 6.82 | 5.68
33 | O=C(NCCC1CCCCC1)c1ccc2sc(C(F)(F)P(=O)(O)O)c(Br)c2c1 [Compound 53] | 4.11 | 3.24
34 | O=C(N[C@H]1CC[C@@H](C(F)(F)F)CC1)c1ccc2sc(C(F)(F)P(=O)(O)O)c(Br)c2c1 [Compound 54] | 6.75 | 5.03
35 | CC(C)CNC(=O)c1ccc2sc(C(F)(F)P(=O)(O)O)c(Br)c2c1 [Compound 55] | 9.7 | 7.62
36 | O=C(NC1CCS(=O)(=O)C1)c1ccc2sc(C(F)(F)P(=O)(O)O)c(Br)c2c1 (centres unmarked) [Compound 56] | 3.93 | 2.88
37 | O=C(N[C@@H]1[C@@H]2COC[C@@H]21)c1ccc2sc(C(F)(F)P(=O)(O)O)c(Br)c2c1 [Compound 57] | 5.09 | 4.33
38 | CN1CCCC(NC(=O)c2ccc3sc(C(F)(F)P(=O)(O)O)c(Br)c3c2)C1 (centres unmarked) [Compound 58] | 7.9 | 9.05
39 | O=C(NCCC1CC1)c1ccc2sc(C(F)(F)P(=O)(O)O)c(Br)c2c1 [Compound 59] | 0.55 | 1.39
40 | CC(C)OCCNC(=O)c1ccc2sc(C(F)(F)P(=O)(O)O)c(Br)c2c1 [Compound 60] | 2.53 | 5.72
41 | O=C(Nc1cccc(-c2cnco2)c1)c1ccc2sc(C(F)(F)P(=O)(O)O)c(Br)c2c1 [Compound 61] | 0.904 | 0.638
42 | O=C(Nc1ccccc1-c1ccccc1)c1ccc2sc(C(F)(F)P(=O)(O)O)c(Br)c2c1 [Compound 62] | 1.61 | 2
43 | CC1CCc2c(sc(NC(=O)c3ccc4sc(C(F)(F)P(=O)(O)O)c(Br)c4c3)c2C#N)C1 (centres unmarked) [Compound 63] | 0.542 | 0.444
44 | O=C(Nc1ccc(Cn2cccn2)cc1)c1ccc2sc(C(F)(F)P(=O)(O)O)c(Br)c2c1 [Compound 64] | 1.8 | 1.44
45 | O=C(NC(c1ccccc1)c1cccnc1)c1ccc2sc(C(F)(F)P(=O)(O)O)c(Br)c2c1 (centres unmarked) [Compound 65] | 4.85 | 4.3
46 | N#Cc1cccc(-c2cccc(NC(=O)c3ccc4sc(C(F)(F)P(=O)(O)O)c(Br)c4c3)c2)c1 [Compound 66] | 0.719 | 0.516
47 | O=C(NC1CCN(Cc2ccccc2)C1)c1ccc2sc(C(F)(F)P(=O)(O)O)c(Br)c2c1 (centres unmarked) [Compound 67] | 4.89 | 3.18
48 | O=C(NC1CCCN(Cc2ccccc2F)C1)c1ccc2sc(C(F)(F)P(=O)(O)O)c(Br)c2c1 (centres unmarked) [Compound 68] | 4.24 | 3.77
49 | C[C@@H](Cc1cccc(C(F)(F)F)c1)NC(=O)c1ccc2sc(C(F)(F)P(=O)(O)O)c(Br)c2c1 [Compound 69] | 4.16 | 6.25
50 | CC(C)(NC(=O)c1ccc2sc(C(F)(F)P(=O)(O)O)c(Br)c2c1)c1ncn(-c2ccccc2)n1 [Compound 70] | 8.75 | 9.21
51 | CC(NC(=O)c1ccc2sc(C(F)(F)P(=O)(O)O)c(Br)c2c1)c1cccc2ccccc12 (centres unmarked) [Compound 71] | 3.53 | 3.65
52 | O=C(NCCc1cnc2n(c1=O)CCCC2)c1ccc2sc(C(F)(F)P(=O)(O)O)c(Br)c2c1 [Compound 72] | 3.52 | 2.75
53 | Cc1cc(NC(=O)c2ccc3sc(C(F)(F)P(=O)(O)O)c(Br)c3c2)n(Cc2ccccc2)n1 [Compound 73] | 3.08 | 2.56
54 | CC(=O)N1CCC(CNC(=O)c2ccc3sc(C(F)(F)P(=O)(O)O)c(Br)c3c2)(C(F)(F)F)C1 (centres unmarked) [Compound 74] | 7.44 | 5.76
55 | O=C(N[C@@H]1CCCC[C@H]1OCc1ccccc1)c1ccc2sc(C(F)(F)P(=O)(O)O)c(Br)c2c1 [Compound 75] | 2.7 | 1.85
